Data as given in patent publication US20050107289A1, “Anti-microbial peptides and compositions” (priority 2001, published 2005).
Non-standard residues stand in square brackets, D forms with d. Residues, ends and D or L forms follow the SMILES beside them.

Experiments:
E. coli JM109 (DE3) = assay: Time-killing curve, E. coli; type: cell-based, Escherichia coli; settings: FIG. 8b; at MIC concentrations
Description: The speed at which several of the cyclic peptides of the invention kill E. coli JM 109 (DE3), Enterococcus faecium SP 180 and S. aureus (MRSA) (ATCC No. 33591 and 33592) was further tested at room temperature and/or at 37° C. A lower temperature tends to enrich the bacterial cultures for mature bacteria because the bacteria are not growing quickly. […] The presence or absence of immature bacteria in the culture may influence the rate at which the bacteria are killed, because immature bacteria tend to be more susceptible to many forms of antibiotics.
In FIG. 8b, the log of the number of E. coli colony forming units (cfu) per ml of culture is plotted versus time treated with cyclo[KRKWLWLW] (closed triangles), cyclo[KQRWLWLW] (closed circles), cyclo[KHLWLW] (closed squares), and cyclo[KKWLW] (open squares) at MIC concentrations. […] Cyclic peptide cyclo[KHKLWLW] kills effectively all E. coli within about 90 minutes. Cyclic peptides cyclo[KRKWLWLW] and cyclo[KKWLW] kill effectively all of the E. coli within about 130 minutes. […] Nonetheless, these cyclic peptides kill both types of bacteria very quickly.

[1] = trypsin, α-chymotrypsin, subtilisin, blood plasma; RP-HPLC over 24 h
Description: Cyclic peptides having SEQ ID NO:13, 18, 26, and 29 were assayed for proteolytic susceptibility.

Row | Compound | time to kill effectively all E. coli (E. coli JM109 (DE3)) | proteolytic stability [1]
1 | CC(C)C[C@H]1NC(=O)[C@H](Cc2c[nH]c3ccccc23)NC(=O)[C@@H](CCCNC(=N)N)NC(=O)[C@H](CCC(N)=O)NC(=O)[C@@H](CCCCN)NC(=O)[C@H](Cc2c[nH]c3ccccc23)NC(=O)[C@@H](CC(C)C)NC(=O)[C@H](Cc2c[nH]c3ccccc23)NC1=O [SEQ ID NO:8, cyclo-(D-Lys-Gln-D-Arg-Trp-D-Leu-Trp-D-Leu-Trp)] (cyclo([dK]Q[dR]W[dL]W[dL]W)) | within about thirty minutes | –
2 | CC(C)C[C@H]1NC(=O)[C@H](Cc2c[nH]c3ccccc23)NC(=O)[C@@H](CCCCN)NC(=O)[C@H](CCCNC(=N)N)NC(=O)[C@@H](CCCNC(=N)N)NC(=O)[C@H](Cc2c[nH]c3ccccc23)NC(=O)[C@@H](CC(C)C)NC(=O)[C@H](Cc2c[nH]c3ccccc23)NC1=O [SEQ ID NO:18, cyclo-(D-Arg-Arg-D-Lys-Trp-D-Leu-Trp-D-Leu-Trp)] (cyclo([dR]R[dK]W[dL]W[dL]W)) | – | stable
